Assay: Dissociation constant pKb of the amine additive (Table 1)
Assay type: physicochemical
Conditions: measured at 25° C
Description: The inventors have conducted an extensive study on suppression or inhibition of halogenation reaction which would occur during preparation of a halogenated aromatic amine. As a result, the inventors discovered that when a halogenated aromatic nitro compound is hydrogenated in the presence of a predetermined amount of a platinum catalyst together with an amine selected from the group consisting of an alkylmonoamine, an alicyclic amine and a polyalkylenepolyamine, the dehalogenation may be suppressed to a minimum. The present invention has been completed on the basis of this discovery. The alkylmonoamine, alicyclic amine and polyalkylenepolyamine have common properties that they are an organic nitrogen-containing base having a dissociation constant pKb lower than 4.2. The dissociation constant herein described means that which is defined according to the dissociation equilibrium of the usual acid or base, i.e., when an organic nitrogen-containing base is expressed by RN, the dissociation equilibrium of RN is expressed by a formula
RN + H2 O .revreaction. RNH^+ + OH^-
and the dissociation constant is defined as follows [formula] where [ ]means activity.
Though the dissociation constant pKb is generally more or less varied with temperature, the pKb value is measured at 25° C herein.

Compound | Dissociation Constant pKb
CC(C)N [isopropylamine] | 3.4
CN [methylamine] | 3.4

Reference: patent US4070401A, “Method for the preparation of a halogenated aromatic amine” (Mitsui Toatsu Chemicals Inc., priority 1972, dated 1978)
